Experimental data reported in ChEMBL document CHEMBL4765432, “Design and synthesis of novel Flavone-based histone deacetylase inhibitors antagonizing activation of STAT3 in breast cancer” (Eur J Med Chem, 2020).

Tests used:
MDA-MB-231 = assay: Induction of apoptosis in human MDA-MB-231 cells assessed as increase in PARP cleavage incubated for 48 hrs by Western blot analysis; assay type: functional, cell-based; details: dose 0.5-10 µM
4T1 [1] = assay: Induction of cell cycle arrest in mouse 4T1 cells assessed as G0/G1 phase accumulation at 1 uM incubated for 24 hrs by PI staining based flow cytometry analysis (reference value: 42.06 %); assay type: functional
[2] = Half life in Sprague-Dawley rat at 20 mg/kg, iv measured upto 12 hrs by LC-MS/MS analysis; assay type: ADME, organism-based; details: in vivo
4T1 [3] = assay: Induction of apoptosis in mouse 4T1 cells assessed as viable cells at 1 uM incubated for 72 hrs by annexinV-FITC and PI staining based flow cytometry analysis (reference value: 91.1 %); assay type: functional; details: read-out: Activity
[4] = Toxicity in C57BL/6 mouse assessed death of organism at 50 mg/kg, po observed for 20 days; assay type: organism-based; details: in vivo, 480 h, time 20 day
Histone deacetylase 11 = Histone deacetylase 11 (Homo sapiens, UniProt Q96DB2); assay: Inhibition of recombinant human N-terminal GST-tagged full length HDAC-11 expressed in baculovirus infected in Sf9 cells using Boc-Lys (q-Ac)-AMC as substrate incubated for 10 mins followed by substrate addition and measured after 30 mins by fluorescence based assay
MCF7 = assay: Potency index, ratio of IC50 of SAHA to IC50 of compound for cytotoxicity against human MCF7 cells assessed as reduction in cell viability incubated for 48 hrs by MTT assay; assay type: functional
MDA-MB-468 = assay: Cytotoxicity against human MDA-MB-468 cells assessed as reduction in cell viability incubated for 48 hrs by MTT assay; assay type: functional, cell-based; details: MDA-MB-468, 48 h
Histone deacetylase 7 = Histone deacetylase 7 (Homo sapiens, UniProt Q8WUI4); assay: Inhibition of recombinant human N-terminal GST-tagged HDAC-7 (501 to end residues) expressed in baculovirus infected in Sf9 cells using Boc-Lys (q-Ac)-AMC as substrate incubated for 10 mins followed by substrate addition and measured after 30 mins by fluorescence based assay
4T1 [5] = assay: Induction of apoptosis in mouse 4T1 cells assessed as early apoptotic cells at 5 uM incubated for 72 hrs by annexinV-FITC and PI staining based flow cytometry analysis (reference value: 1.65 %); assay type: functional
[6] = AUC (0 to infinity) in Sprague-Dawley rat at 20 mg/kg, iv measured upto 12 hrs by LC-MS/MS analysis; assay type: ADME, organism-based; parameters: route intravenous, dose 20 mg/kg, time <=12; details: in vivo

Chain of Histone deacetylase 11 (Q96DB2 whole entry): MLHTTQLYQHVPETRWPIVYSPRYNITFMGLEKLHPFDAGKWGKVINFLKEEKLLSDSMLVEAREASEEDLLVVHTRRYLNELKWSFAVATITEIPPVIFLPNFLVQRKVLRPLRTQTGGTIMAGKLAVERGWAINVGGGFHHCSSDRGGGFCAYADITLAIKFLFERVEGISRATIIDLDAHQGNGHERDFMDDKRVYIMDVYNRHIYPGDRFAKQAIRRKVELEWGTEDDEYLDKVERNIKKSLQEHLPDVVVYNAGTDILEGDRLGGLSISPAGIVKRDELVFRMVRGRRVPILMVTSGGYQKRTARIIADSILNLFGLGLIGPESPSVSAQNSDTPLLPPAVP
Chain of Histone deacetylase 7 (Q8WUI4 whole entry): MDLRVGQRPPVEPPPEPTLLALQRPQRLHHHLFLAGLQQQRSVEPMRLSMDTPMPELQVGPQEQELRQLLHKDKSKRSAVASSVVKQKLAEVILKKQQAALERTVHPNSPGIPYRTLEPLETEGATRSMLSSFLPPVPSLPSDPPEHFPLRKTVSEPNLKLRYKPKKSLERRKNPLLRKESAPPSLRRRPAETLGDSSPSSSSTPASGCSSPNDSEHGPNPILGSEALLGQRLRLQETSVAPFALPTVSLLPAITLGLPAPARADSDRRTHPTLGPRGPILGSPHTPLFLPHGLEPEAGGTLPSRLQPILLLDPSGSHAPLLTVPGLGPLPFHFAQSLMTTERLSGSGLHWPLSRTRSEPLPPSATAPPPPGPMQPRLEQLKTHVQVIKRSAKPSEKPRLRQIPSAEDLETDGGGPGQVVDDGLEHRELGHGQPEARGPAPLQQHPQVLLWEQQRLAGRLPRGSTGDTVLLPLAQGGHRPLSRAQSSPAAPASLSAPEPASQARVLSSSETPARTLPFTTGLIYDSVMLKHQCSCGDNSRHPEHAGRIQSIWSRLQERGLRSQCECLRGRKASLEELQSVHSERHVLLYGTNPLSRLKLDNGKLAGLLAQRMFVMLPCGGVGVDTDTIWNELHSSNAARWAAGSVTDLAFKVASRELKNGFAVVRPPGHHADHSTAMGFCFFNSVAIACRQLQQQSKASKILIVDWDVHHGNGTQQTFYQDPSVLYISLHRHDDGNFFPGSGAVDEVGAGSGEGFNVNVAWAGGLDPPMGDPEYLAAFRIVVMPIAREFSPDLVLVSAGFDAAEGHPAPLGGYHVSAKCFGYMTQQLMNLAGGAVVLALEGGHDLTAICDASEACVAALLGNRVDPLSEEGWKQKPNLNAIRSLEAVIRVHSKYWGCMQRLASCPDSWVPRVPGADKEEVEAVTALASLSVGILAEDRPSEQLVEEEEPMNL

Structure (SMILES): CN(C)CCOc1ccc(-c2cc(=O)c3c(O)cc(OCCCCCC(=O)NO)cc3o2)cc1.Cl
- Activity (MDA-MB-231): Dose-dependent effect
- Activity (4T1 [1]): 49.62%
- half-life [2]: 1.42 h
- viability at 1 µM (4T1 [3]): 72.3%
- Activity [4]: Non-Toxic
- IC50 (Histone deacetylase 11): 0.179 µM
- Ratio IC50 (MCF7): 2
- IC50 (MDA-MB-468): 3.4 µM
- IC50 (Histone deacetylase 7): > 10 µM
- Activity (4T1 [5]): 54.9%
- AUC(0-inf) [6]: 2840 ng·h/mL
